Laboratory results from the Kinase Knowledgebase extract (Sharma et al. 2016).

What follows are compounds tested against EGFR (UniProt P00533).
EGFR, sequence (P00533 whole entry, looked up): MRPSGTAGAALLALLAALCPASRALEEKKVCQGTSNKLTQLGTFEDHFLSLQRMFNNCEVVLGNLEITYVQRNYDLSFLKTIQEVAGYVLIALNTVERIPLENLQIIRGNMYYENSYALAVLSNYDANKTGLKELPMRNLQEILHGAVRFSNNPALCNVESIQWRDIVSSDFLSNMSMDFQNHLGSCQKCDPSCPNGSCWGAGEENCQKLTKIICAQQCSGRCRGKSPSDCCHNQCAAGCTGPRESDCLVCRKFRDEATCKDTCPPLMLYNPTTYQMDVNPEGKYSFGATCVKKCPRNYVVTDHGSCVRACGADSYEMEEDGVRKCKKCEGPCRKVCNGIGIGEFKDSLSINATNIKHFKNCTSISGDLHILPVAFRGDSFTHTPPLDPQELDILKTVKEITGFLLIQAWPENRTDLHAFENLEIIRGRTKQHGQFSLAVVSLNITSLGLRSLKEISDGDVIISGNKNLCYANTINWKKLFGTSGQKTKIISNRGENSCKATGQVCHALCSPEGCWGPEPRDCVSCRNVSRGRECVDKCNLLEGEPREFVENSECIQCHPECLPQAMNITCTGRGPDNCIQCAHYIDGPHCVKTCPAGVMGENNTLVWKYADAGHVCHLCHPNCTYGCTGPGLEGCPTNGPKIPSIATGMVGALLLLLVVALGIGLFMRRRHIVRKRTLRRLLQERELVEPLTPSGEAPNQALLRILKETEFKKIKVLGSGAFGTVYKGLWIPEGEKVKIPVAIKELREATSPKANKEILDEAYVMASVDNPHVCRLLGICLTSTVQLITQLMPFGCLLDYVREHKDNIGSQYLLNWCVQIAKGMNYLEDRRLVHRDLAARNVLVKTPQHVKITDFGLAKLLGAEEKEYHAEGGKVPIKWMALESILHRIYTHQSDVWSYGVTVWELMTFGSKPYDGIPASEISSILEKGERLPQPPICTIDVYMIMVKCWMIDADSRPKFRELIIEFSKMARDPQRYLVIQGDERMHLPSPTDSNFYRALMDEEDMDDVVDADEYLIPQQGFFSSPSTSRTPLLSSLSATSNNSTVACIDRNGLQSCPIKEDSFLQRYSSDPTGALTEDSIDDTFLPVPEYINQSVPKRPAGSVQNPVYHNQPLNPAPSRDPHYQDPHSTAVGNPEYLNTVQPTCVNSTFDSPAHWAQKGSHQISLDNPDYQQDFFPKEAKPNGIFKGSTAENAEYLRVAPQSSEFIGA

Compound | IC50 [µM]
C(=C\c1cncnc1Nc1ccc2[nH]c(Cc3ccccc3)nc2c1)/c1ccsc1 | ≤ 10
CC(=O)Nc1cccc(/C=C/c2cncnc2Nc2ccc(OCc3cccc(F)c3)c(Cl)c2)c1 | < 0.1
CSCCC(=O)Nc1cccc(C#Cc2cncnc2Nc2ccc(OCc3cccc(F)c3)c(Cl)c2)c1 | ≤ 10
Oc1cccnc1/C=C/c1cncnc1Nc1ccc(OCc2cccc(F)c2)c(Cl)c1 | ≤ 10
CC(=O)Nc1cccc(C#Cc2cncnc2Nc2ccc3c(cnn3Cc3ccccc3)c2)c1 | ≤ 10
O=C(Nc1cccc(C#Cc2cncnc2Nc2ccc(OCc3cccc(F)c3)c(Cl)c2)n1)C(F)(F)F | < 0.1
C(=C\c1cncnc1Nc1ccc2c(cnn2Cc2ccccc2)c1)/c1ccncc1 | ≤ 10
N#CCCNC(=O)NCc1cccc(C#Cc2cncnc2Nc2ccc(OCc3cccc(F)c3)c(Cl)c2)n1 | ≤ 10
Fc1cccc(COc2ccc(Nc3ncncc3C#Cc3cccc(CNCCN4CCOCC4)n3)cc2Cl)c1 | 0.1 to 1
COCCNC(=O)NCc1cccc(C#Cc2cncnc2Nc2ccc(OCc3cccc(F)c3)c(Cl)c2)n1 | ≤ 10
C(=C\c1cncnc1Nc1ccc(Oc2ccccc2)cc1)/c1ccccc1 | ≤ 10
Fc1cccc(COc2ccc(Nc3ncncc3/C=C/c3cccnc3)cc2Cl)c1 | ≤ 10
COc1ccc(/C=C/c2cncnc2Nc2ccc(OCc3cccc(F)c3)c(Cl)c2)cc1OC | < 0.1
C(#Cc1cncnc1Nc1ccc2c(ccn2Cc2ccccc2)c1)c1ccccc1 | ≤ 10
COCCOCC(=O)Nc1cccc(C#Cc2cncnc2Nc2ccc(OCc3cccc(F)c3)c(Cl)c2)c1 | ≤ 10
C(=C\c1cncnc1Nc1ccc2[nH]c(Cc3ccccc3)nc2c1)/c1cn[nH]c1 | ≤ 10
CN1CCN(Cc2cccc(C#Cc3cncnc3Nc3ccc(OCc4cccc(F)c4)c(Cl)c3)n2)CC1 | ≤ 10
CC(=O)Nc1ccc(/C=C/c2cncnc2Nc2ccc(OCc3cccc(F)c3)c(Cl)c2)cn1 | ≤ 10
CC(=O)Nc1cccc(C#Cc2cncnc2Nc2ccc(Oc3ccccc3)cc2)c1 | ≤ 10
C(=C\c1cncnc1Nc1ccc2c(cnn2Cc2ccccc2)c1)/c1cccnc1 | ≤ 10
Nc1ncc(/C=C/c2cncnc2Nc2ccc3c(cnn3Cc3ccccc3)c2)cn1 | ≤ 10
N#CCCNCc1cccc(C#Cc2cncnc2Nc2ccc(OCc3cccc(F)c3)c(Cl)c2)n1 | ≤ 10
CC(=O)NCCNCc1cccc(C#Cc2cncnc2Nc2ccc(OCc3cccc(F)c3)c(Cl)c2)n1 | ≤ 10
N#Cc1ccc(C#Cc2cncnc2Nc2ccc(OCc3ccc(F)cc3)c(Cl)c2)nc1N | ≤ 10

Continued, values first:

IC50 [µM] | Compound
≤ 10 | Nc1ccc(C#Cc2cncnc2Nc2ccc(OCc3cccc(F)c3)c(Cl)c2)cc1
≤ 10 | Cn1cncc1C#Cc1cncnc1Nc1ccc(OCc2cccc(F)c2)c(Cl)c1
≤ 10 | Fc1cccc(COc2ccc(Nc3ncncc3C#Cc3nccs3)cc2Cl)c1
≤ 10 | O=Cc1ccc(C#Cc2cncnc2Nc2ccc(OCc3cccc(F)c3)c(Cl)c2)o1
≤ 10 | CC(=O)NCc1cccc(C#Cc2cncnc2Nc2ccc(OCc3cccc(F)c3)c(Cl)c2)c1
≤ 10 | Fc1cccc(COc2ccc(Nc3ncncc3C#Cc3ncccn3)cc2Cl)c1
≤ 10 | CNCc1cccc(C#Cc2cncnc2Nc2ccc(OCc3cccc(F)c3)c(Cl)c2)n1
≤ 10 | Fc1cccc(COc2ccc(Nc3ncncc3C#Cc3cccs3)cc2Cl)c1
≤ 10 | N#Cc1ccccc1C#Cc1cncnc1Nc1ccc(OCc2cccc(F)c2)c(Cl)c1
≤ 10 | Nc1ccc(C#Cc2cncnc2Nc2ccc(OCc3cccc(F)c3)c(Cl)c2)cn1
≤ 10 | OCc1ccc(C#Cc2cncnc2Nc2ccc(OCc3cccc(F)c3)c(Cl)c2)o1
≤ 10 | Nc1cccc(C#Cc2cncnc2Nc2ccc(OCc3cccc(F)c3)c(Cl)c2)c1
≤ 10 | CSc1nccc(C#Cc2cncnc2Nc2ccc(OCc3cccc(F)c3)c(Cl)c2)n1
≤ 10 | N#Cc1cccc(C#Cc2cncnc2Nc2ccc(OCc3cccc(F)c3)c(Cl)c2)c1
≤ 10 | CC(=O)Nc1cccc(C#Cc2cncnc2Nc2ccc(OCc3cccc(F)c3)c(Cl)c2)n1
